According to patent US20240293430A1, “WITHAFERIN A AND IMMUNE CHECKPOINT BLOCKER COMBINATION THERAPIES” (University of South Florida, priority 2023, published 2024):

Experiments:
[1] = tested on: PD-L1 expression in MC38, HCT116 colon cancer cell lines; experiment: PD-L1 expression in colon cancer cell lines; type: cell-based, mouse (MC38), human (HCT116)
Procedure: (§1) FIGS. 8A-8G depict that WFA induced ICD and PD-L1 upregulation in colorectal cancer cell lines. WFA increased the levels of ecto-CRT in the murine colorectal cancer cell line (FIG. 8A) MC-38 and human cell line (FIG. 8B) HCT-116. WFA increased the expression of PD-L1 in both (FIG. 8C) MC-38 and (FIG. 8D) HCT-116 cells. […] H1650 cells (at a higher density) were treated with a higher concentration of WFA (2 and 4 μM) to facilitate cell collection and protein isolation. The band density was quantified using Image J software and normalized to the housekeeping protein. The fold change from untreated control was averaged from two independent experiments ±SEM and one-way ANOVA was used to calculate the statistical significance. A Fisher LSD post hoc test was performed to compare the treatments to the control in (FIG. 8E) LLC, (FIG. 8F) H1650, (FIG. 8G) A549 cells. * p<0.05, ** p<0.01, *** p<0.001, **** p<0.0001.
(§2) In vitro WFA-treated or control cells were collected using Accutase cell detachment solution and stained with FACS-diluted (PBS, 10% FBS, 2 mMEDTA) pre-titrated fluorophore conjugated or primary unconjugated antibody solutions (Table 1) for 30 min on ice in the dark. […]

[2] = tested on: ecto-CRT in MC38 and HCT-116 colorectal cancer cell lines; experiment: Ecto-CRT by flow cytometry, colorectal cancer; type: cell-based, mouse (MC38), human (HCT-116)
Procedure: as §1, §2

[3] = tested on: ROS levels in NSCLC cell lines; experiment: ROS levels with ROS indicator CM-H2DCFDA; type: cell-based, mouse (LLC), human (H1650; settings: 24 h; WFA 0.6 μM (LLC, H1650), 4 μM (A549); NAC 5 mM
[4] = tested on: PD-L1 upregulation in MC-38, HCT-116, 4T-1, and MDA-MB-231 cell lines; experiment: PD-L1 with WFA and NAC in colorectal and breast cancer cell lines; type: cell-based, mouse (MC-38, 4T1), human (HCT-116; settings: breast cancer cell lines (4T1 1 μM, MDA-MB-231 2 μM WFA)
[5] = tested on: PARP, BCL-XL, CHOP, p-eIF-2 in NSCLC cell lines; experiment: Western blot of apoptosis and ER stress markers; type: cell-based, mouse (LLC), human (H1650)
Procedure: FIGS. 1A-lE depict that WFA induces ER stress-mediated apoptosis in NSCLC cell lines. (FIG. 1A) NSCLC cells were plated on 96-well plates and treated with different concentrations of WFA ([…]) in triplicates. Forty-eight hours post-treatment, cell viability was determined using Cell Titer-Glo assay. Luminescence values were normalized to control untreated cells and IC50 values are represented as the mean of two independent experiments ±SEM. (FIG. 1B) NSCLC cells were treated WFA for forty-eight hours, then collected to measure apoptotic cell death using Annexin V assay in LLC cells, H1650 cells, and A549 cells. Percentages of early (annexin*DAPI-) and late (annexin*DAPI+) apoptotic cells are represented as means of two separate experiments ±SEM and statistical significance was calculated using one-way ANOVA and a Fisher LSD post hoc test was used to compare the mean of each group to that of the control group. (FIGS. 1C-1D) WFA treated cells were collected in Trizol and total RNA was isolated to measure the levels of Bax (FIG. 1C) and Bcl2 (FIG. 1D) mRNA using qRT-PCR. PCR experiments were repeated at least twice, and one representative experiment is shown as mean±SEM of the technical replicates. (FIG. 1E) Western blot of ER stress markers p-eIF-2 and CHOP was performed using total lysates of WFA-treated LLC cells. The quantification of western blot band density was performed using Image J software v.1.54d and normalized to housekeeping control protein in LLC cells (0-actin). […] Data were obtained from two independent experiments.
FIGS. 7A-7I depict qRT-PCR analysis of the change in expression of pro-apoptotic and anti-apoptotic induced by WFA treatment. WFA increased the mRNA levels of proapoptotic protein Bak-1 in (FIG. 7A) LLC cells and BAD in (FIG. 7C) H1650 cells. […]
Total protein was isolated using Radioimmunoprecipitation Assay (RIPA) buffer (Thermo Fisher Scientific, Waltham, MA, USA) and sonication of cell pellets using Branson digital sonifier 450. […] Then, protein levels were quantified using a Pierce Coomassie Protein assay kit (Thermo Fisher Scientific, Waltham, MA, USA) according to the manufacturer's instruction and the absorbance values at 595 nm were measured using a plate reader (Bio Tek, Winooski, VT, USA) and used to calculate protein concentrations. […] Protein bands were detected using SuperSignal West Pico PLUS Chemiluminescent Substrate or West Femto Maximum Sensitivity Substrate (Thermo Fisher Scientific, Waltham, MA, USA) and imaged using the ChemiDoc XRS imaging system (Bio-Rad, Hercules, CA, USA) according to the manufacturer's instructions. Band density was measured using Image J software version 1.54d and was normalized to housekeeping proteins (0-actin or Vinculin). […]

In the case of `CC1=C(CO)C(=O)O[C@@H]([C@@H](C)[C@H]2CC[C@H]3[C@@H]4C[C@H]5O[C@]56[C@@H](O)C=CC(=O)[C@]6(C)[C@H]4CC[C@]23C)C1` [WFA, Withaferin A], the PD-L1 expression [1] is reported as “increased”, the “levels of ecto-CRT” value [2] is reported as “increased” and the ROS levels [3] is reported as “increased”. For the same compound, the PD-L1 expression [4] was “increases”, the “levels of BCL-XL” value ([5]; H1650 cells) was “reduced” and the PARP cleavage ([5]; LLC and H1650 cells) was “increased”. The “levels of C/EBP homologous protein (CHOP)” value ([5]; LLC cells) was “increases” and the “phosphorylation of eIF-2” value ([5]; LLC cells) was “increases”.
